From publication PMC5727842, “Antioxidant and Antidiabetic Effects of Flavonoids: A Structure-Activity Relationship Based Study” (BioMed Research International, 2017)

System: not listed separately
Test: DPPH radical scavenging assay
Conditions: 30 min, 517 nm, mean ± SEM (n = 3)
Protocol: Each sample's stock solution was diluted to final concentrations of 1000–0.4889 μg/mL in MeOH. A total of 1 mL of a 0.3 mM DPPH methanolic solution was added to 2.5 mL of sample solution of different concentrations and allowed to react at room temperature. After 30 min, the absorbance (Abs) values were measured at 517 nm with a microplate reader (Tecan NanoQuant Infinite M200, Switzerland) and converted into the percentage antioxidant activity using the following equation described previously: (1) % antioxidant activity=100−Abssample−Abssample blank/Abscontrol−Abscontrol blank×100. MeOH + compound solution was used as a blank, while DPPH solution plus MeOH was used as a negative control. The positive controls were DPPH solution plus 1 mM ascorbic acid. The IC50 values were calculated by linear regression of plots. The average percent of scavenging capacity was taken from three replicates.
With `O=c1cc(-c2ccc(O)cc2)oc2c(O)c(O)cc(O)c12` [Isoscutellarein, 4′,5,7,8-Tetrahydroxyflavone] the “IC50 DPPH” value was 5.23 ± 0.53^GHa µg/ml.
For `O=c1c(O)c(-c2ccc(O)cc2)oc2cc(O)cc(O)c12` [Kaempferol, 4′,3,5,7-Tetrahydroxyflavone], the “IC50 DPPH” value was 10.89 ± 0.86^EF µg/ml.
In the case of `COc1cc(OC)c2c(=O)cc(-c3ccccc3)oc2c1OC` [Methyl ether (wogonin), 5,7,8-Trimethoxyflavone], the “IC50 DPPH” value is reported as >200^A µg/ml.
For `O=c1c(O)c(-c2ccc(O)c(O)c2)oc2cc(O)cc(O)c12` [Quercetin, 3,3′,4′,5,7-Pentahydroxyflavone], the “IC50 DPPH” value was 7.76 ± 0.99^FG µg/ml.

System: not listed separately
Test: ABTS+ radical scavenging assay
Conditions: 734 nm, mean ± SEM (n = 3)
Protocol: An improved ABTS^+ radical decolorization assay was carried out involving direct production of the blue/green ABTS^+ chromophore through the reaction between ABTS and potassium persulfate. Addition of antioxidant to the preformed radical cation reduces it to ABTS to an extent on a time scale depending on the antioxidant activity, the concentration of the antioxidant, and the duration of the reaction. 1 ml ABTS was dissolved in water to make 7 mM concentration of the resultant solution. […] The resultant reaction mixture was allowed to stand in the dark at room temperature for 12–16 h before being used. The ABTS^+ radical solution was diluted with MeOH to an absorbance of 0.7 (±0.02) at 734 nm. Then, 100 μl of sample at various concentrations (1000–0.4889 μg/mL) was mixed with 100 μL of diluted ABTS^+ radical. Each concentration was analyzed in triplicate and the percentage decrease of absorbance at 734 nm with a microplate reader (Tecan NanoQuant Infinite M200, Switzerland) was calculated for each point and the antioxidant capacity of the tested compounds was expressed as percent inhibition (%). The radical scavenging activity of the compounds was measured according to the following equation [29]:(2) % inhibition=Acontrol−Asample/Acontrol×100. IC50 values were calculated by linear regression of plots, and the average percent of scavenging capacity was taken from three replicates. Trolox was used as a standard in comparison for the determination of the antioxidant activity of the flavonoids.
In the case of `O=c1cc(-c2ccc(O)cc2)oc2c(O)c(O)cc(O)c12` [Isoscutellarein, 4′,5,7,8-Tetrahydroxyflavone], the “IC50 ABTS+” value is reported as 1.73 ± 0.06^FG µg/ml.
With `O=c1c(O)c(-c2ccc(O)cc2)oc2cc(O)cc(O)c12` [Kaempferol, 4′,3,5,7-Tetrahydroxyflavone] the “IC50 ABTS+” value was 1.36 ± 0.22^FG µg/ml.
In the case of `COc1cc(OC)c2c(=O)cc(-c3ccccc3)oc2c1OC` [Methyl ether (wogonin), 5,7,8-Trimethoxyflavone], the “IC50 ABTS+” value is reported as >200^A µg/ml.
In the case of `O=c1c(O)c(-c2ccc(O)c(O)c2)oc2cc(O)cc(O)c12` [Quercetin, 3,3′,4′,5,7-Pentahydroxyflavone], the “IC50 ABTS+” value is reported as 0.83 ± 0.01^FG µg/ml.
For `Cc1c(C)c2c(c(C)c1O)CCC(C)(C(=O)O)O2` (stereo not shown) [Trolox, trolox, reference compound], the “IC50 ABTS+” value was 1.76 ± 0.15^^FG µg/ml.

System: not listed separately
Test: Rapid screening of radical scavenging activity by dot blot assay (DPPH staining)
Conditions: silica sheet stained with DPPH in MeOH, dilutions from 1000 μg/mL
Protocol: An aliquot (20 μL) of each dilution of each group was carefully loaded on a […] TLC plate and allowed to dry for 10 min. Drops of each sample were loaded in the order of decreased concentration along the 16 columns. The staining of the silica plate was based on the procedure of Soler-Rivas et al.. […] The intensity of the yellow color depends upon the amount and nature of radical scavenger present in the flavonoids.
For `O=c1cc(-c2ccc(O)cc2)oc2c(O)c(O)cc(O)c12` [Isoscutellarein, 4′,5,7,8-Tetrahydroxyflavone], the “radical scavenging activity by dot blot (intensity of yellow spots)” value (“radical scavenging activity by dot blot” below) was “strong radical scavenging activity”.
For `O=c1c(O)c(-c2ccc(O)cc2)oc2cc(O)cc(O)c12` [Kaempferol, 4′,3,5,7-Tetrahydroxyflavone], the “radical scavenging activity by dot blot” value was “strong radical scavenging activity”.
In the case of `COc1cc(OC)c2c(=O)cc(-c3ccccc3)oc2c1OC` [Methyl ether (wogonin), 5,7,8-Trimethoxyflavone], the “radical scavenging activity by dot blot” value is reported as “did not show any spot”.
For `O=c1c(O)c(-c2ccc(O)c(O)c2)oc2cc(O)cc(O)c12` [Quercetin, 3,3′,4′,5,7-Pentahydroxyflavone], the “radical scavenging activity by dot blot” value was “strong radical scavenging activity”.

Target: T1, xanthine oxidase from buttermilk (Bos taurus, UniProt P80457)
T1 construct: 0.3 U/mL enzymes (xanthine oxidase from buttermilk); purchased Sigma-Aldrich (Singapore); host or cells: buttermilk (natural source)
T1 sequence (P80457 whole entry): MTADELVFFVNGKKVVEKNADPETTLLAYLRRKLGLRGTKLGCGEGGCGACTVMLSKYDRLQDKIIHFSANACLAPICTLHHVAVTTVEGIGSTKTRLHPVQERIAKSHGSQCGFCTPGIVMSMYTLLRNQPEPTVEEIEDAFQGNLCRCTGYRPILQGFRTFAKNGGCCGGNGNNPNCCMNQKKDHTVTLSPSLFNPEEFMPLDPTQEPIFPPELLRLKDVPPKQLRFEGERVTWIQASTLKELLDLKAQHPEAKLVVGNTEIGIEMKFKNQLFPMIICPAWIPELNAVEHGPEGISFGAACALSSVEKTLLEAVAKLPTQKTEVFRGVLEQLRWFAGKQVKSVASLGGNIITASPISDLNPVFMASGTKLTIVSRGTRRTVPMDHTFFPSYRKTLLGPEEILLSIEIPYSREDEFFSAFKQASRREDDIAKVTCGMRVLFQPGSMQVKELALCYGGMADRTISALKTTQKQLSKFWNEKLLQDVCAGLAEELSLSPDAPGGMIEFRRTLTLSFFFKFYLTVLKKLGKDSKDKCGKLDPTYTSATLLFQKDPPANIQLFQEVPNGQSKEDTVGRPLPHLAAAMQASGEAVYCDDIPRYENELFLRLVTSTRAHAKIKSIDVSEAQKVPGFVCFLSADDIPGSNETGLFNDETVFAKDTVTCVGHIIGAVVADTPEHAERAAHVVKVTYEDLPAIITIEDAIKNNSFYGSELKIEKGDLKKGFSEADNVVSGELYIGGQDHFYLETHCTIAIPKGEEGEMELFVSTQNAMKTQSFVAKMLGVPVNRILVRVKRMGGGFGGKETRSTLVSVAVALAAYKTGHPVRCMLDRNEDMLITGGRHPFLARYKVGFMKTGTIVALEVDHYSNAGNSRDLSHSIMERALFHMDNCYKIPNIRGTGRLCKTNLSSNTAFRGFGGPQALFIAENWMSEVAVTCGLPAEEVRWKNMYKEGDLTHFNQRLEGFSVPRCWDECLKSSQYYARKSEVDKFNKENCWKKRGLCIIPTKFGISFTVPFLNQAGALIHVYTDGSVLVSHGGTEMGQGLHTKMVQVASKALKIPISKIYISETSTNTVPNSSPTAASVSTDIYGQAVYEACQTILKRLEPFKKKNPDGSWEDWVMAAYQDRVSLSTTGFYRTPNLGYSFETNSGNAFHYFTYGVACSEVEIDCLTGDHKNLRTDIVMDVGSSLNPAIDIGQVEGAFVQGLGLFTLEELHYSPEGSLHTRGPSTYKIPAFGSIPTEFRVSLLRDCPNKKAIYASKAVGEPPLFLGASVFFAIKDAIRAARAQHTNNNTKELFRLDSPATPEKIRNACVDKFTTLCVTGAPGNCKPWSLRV
Test: Xanthine oxidase inhibitory assay (XOI)
Format: biochemical
Conditions: discussion
Protocol: XO catalyzes the oxidation of hypoxanthine to xanthine and subsequently to uric acid. The inhibition of XO reduces both vascular oxidative stress and circulating levels of uric acid. This assay is based on the fact that the superoxide anions are generated by the xanthine. The xanthine oxidase inhibitory activity was measured spectrophotometrically (Tecan NanoQuant Infinite M200, Switzerland) at 295 nm under aerobic condition with slight modification. The reaction mixture contained 50 mM phosphate buffer (pH 7.5), 0.15 mM xanthine (substrate), and 0.3 U/mL enzymes (xanthine oxidase from buttermilk). Samples were prepared by dissolving 1 mg in 5% DMSO in MeOH which gives sample concentration of 144.0 μg/mL in assay. […] The absorption increment at 295 nm indicates the formation of […] of uric acid/min at 25°C. […] All determination was done in triplicate and half maximal concentration (IC50) values were calculated from the percentage of inhibition. XO inhibition activity was expressed as the percentage inhibition of XO as follows:(3) % of inhibition=AbsA−B−C−D/AbsA−B×100, where A is the negative control with B as the blank of A which is without the enzyme and the sample while C is the activity of the sample with enzyme with D as the blank of the sample without enzyme.
For `O=c1cc(-c2ccc(O)cc2)oc2c(O)c(O)cc(O)c12` [Isoscutellarein, 4′,5,7,8-Tetrahydroxyflavone], the “xanthine oxidase inhibitory effect (in words)” value was “low xanthine oxidase inhibitory activity”.
In the case of `O=c1c(O)c(-c2ccc(O)cc2)oc2cc(O)cc(O)c12` [Kaempferol, 4′,3,5,7-Tetrahydroxyflavone], the “xanthine oxidase inhibitory effect (in words)” value is reported as “significant xanthine oxidase inhibitory effect”.
With `O=c1c(O)c(-c2ccc(O)c(O)c2)oc2cc(O)cc(O)c12` [Quercetin, 3,3′,4′,5,7-Pentahydroxyflavone] the “xanthine oxidase inhibitory effect (in words)” value was “significant xanthine oxidase inhibitory effect”.

Same assay, conditions: xanthine oxidase inhibition, 295 nm; mean ± SEM (n = 3); NA: not active
In the case of `O=c1cc(-c2ccc(O)cc2)oc2c(O)c(O)cc(O)c12` [Isoscutellarein, 4′,5,7,8-Tetrahydroxyflavone], the IC50 is reported as greater than 349 µM.

System: not listed separately
Test: Ferric reducing antioxidant power (FRAP)
Conditions: not given
Protocol: This assay was based on the reduction of the ferric tripyridyltriazine (Fe III-TPTZ) complex to the ferrous ion (Fe II) at a low pH forming an intense blue color. In the FRAP assay, compounds that are rich in antioxidant effect exert their action by breaking the free radical chain by donating a hydrogen atom. Briefly, ferric reducing antioxidant power (FRAP) reagent (2.5 mL of a 10 mM TPTZ solution in 40 mM HCl, 2.5 mL of 20 mM FeCl3, and 25 mL of 0.1 M acetate buffer pH 3.6) was prepared and incubated for 10 min at 37°C. Then 20 μL of each compound and ascorbic acid (standard) and 40 μL of FRAP reagent were added to 140 μL of distilled water in a 96-well plate producing a blue-colored solution. The solutions were kept at room temperature for 20 min in the dark and then measured at 593 nm with a microplate reader (Tecan, Switzerland) using a reagent blank composed of 40 μL of FRAP reagents in 200 μL of distilled water. A calibration curve was prepared with a serial dilution of ascorbic acid (standard). The total antioxidant capacity was calculated by interpolating the measured absorbance of the calibration curve and expressed as ascorbic acid equivalents. The results were corrected for dilution and expressed as AAE μg of ascorbic acid/g.
With `O=c1c(O)c(-c2ccc(O)cc2)oc2cc(O)cc(O)c12` [Kaempferol, 4′,3,5,7-Tetrahydroxyflavone] the FRAP antioxidant capacity was 265.65 ± 5.46 AAE μg of ascorbic acid/g.
For `COc1cc(OC)c2c(=O)cc(-c3ccccc3)oc2c1OC` [Methyl ether (wogonin), 5,7,8-Trimethoxyflavone], the FRAP antioxidant capacity was 1.68 ± 0.18 AAE μg of ascorbic acid/g.
In the case of `O=c1c(O)c(-c2ccc(O)c(O)c2)oc2cc(O)cc(O)c12` [Quercetin, 3,3′,4′,5,7-Pentahydroxyflavone], the FRAP antioxidant capacity is reported as 148.12 ± 4.40 AAE μg of ascorbic acid/g.

Same assay, conditions: ascorbic acid equivalent; mean ± SEM (n = 3); Table 2
In the case of `O=c1cc(-c2ccc(O)cc2)oc2c(O)c(O)cc(O)c12` [Isoscutellarein, 4′,5,7,8-Tetrahydroxyflavone], the “FRAP (AAE μg)” value is reported as 262.91 ± 4.99^A AAE μg.
For `O=c1c(O)c(-c2ccc(O)cc2)oc2cc(O)cc(O)c12` [Kaempferol, 4′,3,5,7-Tetrahydroxyflavone], the “FRAP (AAE μg)” value was 265.65 ± 5.46^A AAE μg.
For `COc1cc(OC)c2c(=O)cc(-c3ccccc3)oc2c1OC` [Methyl ether (wogonin), 5,7,8-Trimethoxyflavone], the “FRAP (AAE μg)” value was 1.68 ± 0.18^G AAE μg.
With `O=c1c(O)c(-c2ccc(O)c(O)c2)oc2cc(O)cc(O)c12` [Quercetin, 3,3′,4′,5,7-Pentahydroxyflavone] the “FRAP (AAE μg)” value was 138.93 ± 6.22^C AAE μg.

Target: T2, DPP-4 (Homo sapiens, UniProt P27487)
T2 construct: purchased Cayman (Michigan, USA)
T2 sequence (P27487 whole entry): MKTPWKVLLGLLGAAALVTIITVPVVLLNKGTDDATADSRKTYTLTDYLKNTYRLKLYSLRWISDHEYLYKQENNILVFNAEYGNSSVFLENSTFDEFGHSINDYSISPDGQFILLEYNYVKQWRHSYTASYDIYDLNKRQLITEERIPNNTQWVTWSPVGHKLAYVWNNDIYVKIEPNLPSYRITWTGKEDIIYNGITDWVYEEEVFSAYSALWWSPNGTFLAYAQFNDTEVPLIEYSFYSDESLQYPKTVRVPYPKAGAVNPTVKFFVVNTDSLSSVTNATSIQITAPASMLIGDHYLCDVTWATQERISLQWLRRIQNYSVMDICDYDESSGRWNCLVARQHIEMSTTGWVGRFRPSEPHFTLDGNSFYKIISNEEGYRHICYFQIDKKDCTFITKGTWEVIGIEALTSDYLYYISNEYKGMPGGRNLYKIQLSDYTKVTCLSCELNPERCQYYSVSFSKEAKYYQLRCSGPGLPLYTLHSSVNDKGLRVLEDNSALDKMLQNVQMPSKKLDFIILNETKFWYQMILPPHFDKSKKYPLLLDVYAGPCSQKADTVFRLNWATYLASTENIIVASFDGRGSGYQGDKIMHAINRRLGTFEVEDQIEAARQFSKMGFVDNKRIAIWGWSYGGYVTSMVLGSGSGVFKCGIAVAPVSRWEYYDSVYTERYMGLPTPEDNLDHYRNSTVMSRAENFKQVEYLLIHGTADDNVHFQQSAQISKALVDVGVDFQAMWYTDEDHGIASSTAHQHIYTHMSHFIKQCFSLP
Test: Dipeptidyl peptidase IV (DPP-4) inhibitory assay
Format: biochemical
Conditions: Table 3; mean ± SEM (n = 3); NA: not active
Protocol: Dipeptidyl peptidase (IV) inhibitors work by inhibiting the action of this enzyme, thereby prolonging the activity of incretins that play an important role in insulin secretion and blood glucose control regulation. DPP-4 inhibitory assay was performed as per the standard method (Cayman, USA). Firstly, 1 mg of sample was dissolved in 10% of DMSO and MeOH as the stock solution. For initial activity (100%), 10 μL of MeOH, 30 μL of diluted assay buffer, and 10 μL of diluted DPP-4 (Cayman, USA) were added to 96-well microplate. […] For background well, 10 μL of MeOH and 40 μL of diluted assay buffer were added. Then, 10 μL of prepared sample and 30 μL of diluted assay buffer were added with 10 μL of diluted DPP-4. After that, 50 μL of substrate solution was added to all wells to initiate the reaction and further incubated in the dark at 37°C for 30 min. Finally, plate was read at 360 nm of excitation wavelength and 465 nm of emission wavelength using fluorescence microplate reader (Perkin Elmer, Germany). All determinations were done in triplicate and half maximal concentration (IC50) values were calculated from the percentage of inhibition based on the linear regression analysis. The equation given below was applied to calculate the inhibitory activity (%):(5) Inhibitory activity%=Initial Activity−Sample/Initial Activity×100%.
For DPP-4 inhibitory assay, the reaction is based on the cleavage of the peptide bond by DPP releasing the free Gly-Pro-aminomethylcoumarin group, a fluorogenic substrate resulting in fluorescence excitation and emission.
`O=c1cc(-c2ccc(O)cc2)oc2c(O)c(O)cc(O)c12` [Isoscutellarein, 4′,5,7,8-Tetrahydroxyflavone] gave an IC50 of 77.7 µM.
For `O=c1c(O)c(-c2ccc(O)cc2)oc2cc(O)cc(O)c12` [Kaempferol, 4′,3,5,7-Tetrahydroxyflavone], the IC50 was 160 µM.
With `COc1cc(OC)c2c(=O)cc(-c3ccccc3)oc2c1OC` [Methyl ether (wogonin), 5,7,8-Trimethoxyflavone] the IC50 was greater than 320 µM.
Compound `O=c1c(O)c(-c2ccc(O)c(O)c2)oc2cc(O)cc(O)c12` [Quercetin, 3,3′,4′,5,7-Pentahydroxyflavone] has an IC50 of 72 µM.
